System: a variety of test species
Test: Post-emergence herbicidal activity (glasshouse, sprayed 8 days after sowing, evaluated after 13 days)
Type: in vivo
Conditions: 1000 g/ha, scale 0-5
Method: Seeds of a variety of test species were sown in standard soil in pots. After 8 days cultivation (post-emergence) under controlled conditions in a glasshouse (at 24/16° C., day/night; 14 hours light; 65% humidity), the plants were sprayed with an aqueous spray solution derived from the formulation of the technical active ingredient in acetone/water (50:50) solution containing 0.5% Tween 20 (polyoxyethelyene sorbitan monolaurate, CAS RN 9005-64-5). The test plants were then grown in a glasshouse under controlled conditions (at 24/16° C., day/night; 14 hours light; 65% humidity) and watered twice daily. After 13 days, the test was evaluated (5=total damage to plant; 0=no damage to plant).

Row | SMILES | Post-emergence herbicidal damage score, ABUTH (Abutilon theophrasti) | Post-emergence herbicidal damage score, ALOMY (Alopecurus myosuroides) | Post-emergence herbicidal damage score, AMARE (Amaranthus retroflexus) | Post-emergence herbicidal damage score, ECHCG (Echinochloa crus-galli) | Post-emergence herbicidal damage score, SETFA (Setaria faberi) | Post-emergence herbicidal damage score, ZEAMX (Zea mays)
1 | C=CCC(C)(C)c1cc(N2C(=O)C(C)=C(Cl)C2O)nn1C (stereo not drawn) [Compound B6, 3-chloro-1-[5-(1,1-dimethylbut-3-enyl)-1-methyl-pyrazol-3-yl]-2-hydroxy-4-methyl-2H-pyrrol-5-one] | 5 | 5 | 5 | 5 | 5 | 2
2 | CC(C)=Cc1cc(N2C(=O)C(C)=C(Cl)C2O)nn1C (stereo not drawn) [Compound B7, 3-chloro-2-hydroxy-4-methyl-1-[1-methyl-5-(2-methylprop-1-enyl)pyrazol-3-yl]-2H-pyrrol-5-one] | 4 | 0 | 3 | 1 | 5 | 2
3 | CC1=C(Cl)C(O)N(c2cc(I)n(C)n2)C1=O (stereo not drawn) [Compound B8, 3-chloro-2-hydroxy-1-(5-iodo-1-methyl-pyrazol-3-yl)-4-methyl-2H-pyrrol-5-one] | 5 | 3 | 5 | 4 | 5 | 1
4 | CC1=C(Cl)C(O)N(c2cc(Cl)n(C)n2)C1=O (stereo not drawn) [Compound B9] | 5 | 4 | 5 | 5 | 5 | 1
5 | CC(C)=CCc1cc(N2C(=O)C(C)=C(Cl)C2O)nn1C (stereo not drawn) [Compound B10, 3-chloro-2-hydroxy-4-methyl-1-[1-methyl-5-(3-methylbut-2-enyl)pyrazol-3-yl]-2H-pyrrol-5-one] | 2 | 0 | 0 | 2 | 3 | 0
6 | CC1=C(Cl)C(O)N(c2cc(/C=C/C(C)(C)C)n(C)n2)C1=O (stereo not drawn) [Compound B11] | 0 | 0 | 0 | 0 | 0 | 0
7 | CC1=C(Cl)C(O)N(c2cc(CCC(C)C)n(C)n2)C1=O (stereo not drawn) [Compound B12] | 1 | 0 | 0 | 0 | 0 | 0
8 | CSc1cc(N2C(=O)C(C)=C(Cl)C2O)nn1C (stereo not drawn) [Compound B17] | 4 | 2 | 3 | 4 | 5 | 1
9 | CC1=C(Cl)C(O)N(c2nn(C)c3c2CCC3(C)C)C1=O (stereo not drawn) [Compound B18] | 5 | 4 | 5 | 5 | 5 | 4
10 | CC1=C(Cl)C(O)N(c2cc(S(C)(=O)=O)n(C)n2)C1=O (stereo not drawn) [Compound B20] | 5 | 3 | 5 | 4 | 5 | 0
11 | CC1=C(Cl)C(O)N(c2cc(C(C)(C)C#N)n(C)n2)C1=O (stereo not drawn) [Compound B23] | 4 | 3 | 5 | 5 | 4 | 1
12 | C/C=C\c1cc(N2C(=O)C(C)=C(Cl)C2O)nn1C (stereo not drawn) [Compound B24] | 5 | 3 | 5 | 4 | 5 | 1
13 | C=C(C)c1cc(N2C(=O)C(C)=C(Cl)C2O)nn1C (stereo not drawn) [Compound B25] | 5 | 4 | 5 | 5 | 5 | 2
14 | CC1=C(Cl)C(O)N(c2cc([S+](C)[O-])n(C)n2)C1=O (stereo not drawn) [Compound B26] | 5 | 4 | 5 | 5 | 5 | 4
15 | CC(C)=C(C)c1cc(N2C(=O)C(C)=C(Cl)C2O)nn1C (stereo not drawn) [Compound B27] | 4 | 1 | 1 | 0 | 3 | 0
16 | CC1=C(Cl)C(O)N(c2nn(C)c3c2CCCCC3(C)C)C1=O (stereo not drawn) [Compound B28] | 4 | 2 | 4 | 3 | 3 | 1
17 | CC1=C(Cl)C(O)N(c2nn(C)c3c2C2CCC3C2)C1=O (stereo not drawn) [Compound B29] | 5 | 4 | 5 | 5 | 5 | 3

Reference: US20160168126A1, “CHEMICAL COMPOUNDS” (SYNGENTA LIMITED, priority 2013, published 2016)
